Values after ≈ are worked out from the molar mass of the structure shown. Positions of bridges follow the written chain, without caps; N, C: chain ends. Residues, ends and D or L forms follow the SMILES beside them.
Legend:
E. coli 25922 = test: MIC, modified microtiter dilution; format: cell-based, Escherichia coli; details: MHB, 2–7 × 10^5 CFU/ml, 37°C, 24 h, lowest concentration with no turbidity, at least three independent repeats
From the text: (§1) The experiment was repeated at least three times independently.

E. coli UB1005 = test: MIC, modified microtiter dilution; format: cell-based, Escherichia coli; details: MHB, 2–7 × 10^5 CFU/ml, 37°C, 24 h, no turbidity, at least three independent repeats
From the text: as §1

E. coli K88 = details: MHB, 2–7 × 10^5 CFU/ml, 37°C, 24 h, no turbidity, at least three independent repeats
From the text: (§2) The bacterial strains Escherichia coli (E. coli) ATCC 25922, E. coli K88, E. coli K99, Pseudomonas aeruginosa (P. aeruginosa) ATCC 27853, Escherichia coli (E. coli) UB1005, Salmonella typhimurium 14028, Salmonella pullorum (S. pullorum) C7913, S. typhimurium C7731, S. aureus ATCC 29213, MRSA ATCC 43300, and S. aureus ATCC 25923 were obtained from the College of Veterinary Medicine, Northeast Agricultural University, China. Lactobacillus plantarum (L. plantarum) 8014, Lactobacillus rhamnosus (L. rhamnosus) 7469, L. rhamnosus 1.0911, L. rhamnosus 1.0936, and L. rhamnosus 1.0385 were obtained from the Key Laboratory of Food College, Northeast Agricultural University, China.
(§3) As in a previous study, the antimicrobial activities of the AMPs were investigated using a modified standard microtiter dilution method ([Dong et al., 2014]). The peptides were serially diluted with a solution containing 0.01% acetic acid and 0.2% bovine serum albumin (BSA, Sigma) in 96-well plates. The bacteria grew to the mid-log phase and then were dissolved in MHB at concentration of 2–7 × 10^5 CFU/ml. The peptides and bacterial solution were mixed in equal volume in a 37°C incubator for 24 h. […] Mueller-Hinton broth with microorganisms was used as the positive control, and the pure broth was used as the negative control. The experiment was repeated at least three times independently.

E. coli K99 = details: MHB, 2–7 × 10^5 CFU/ml, 37°C, 24 h, no turbidity, at least three independent repeats
From the text: as §2, §3

S. typhimurium 14028 = test: MIC, modified microtiter dilution; format: cell-based, Salmonella typhimurium; details: MHB, 2–7 × 10^5 CFU/ml, 37°C, 24 h, no turbidity, at least three independent repeats
From the text: as §1

S. typhimurium 7731 = test: MIC, modified microtiter dilution; format: cell-based, Salmonella typhimurium; details: MHB, 2–7 × 10^5 CFU/ml, 37°C, 24 h, no turbidity, at least three independent repeats
From the text: as §1

S. pullorum 7913 = test: MIC, modified microtiter dilution; format: cell-based, Salmonella pullorum; details: MHB, 2–7 × 10^5 CFU/ml, 37°C, 24 h, no turbidity, at least three independent repeats
From the text: as §1

P. aeruginosa 27853 = test: MIC, modified microtiter dilution; format: cell-based, Pseudomonas aeruginosa; details: MHB, 2–7 × 10^5 CFU/ml, 37°C, 24 h, no turbidity, at least three independent repeats
From the text: as §1

S. aureus 25923 = test: MIC, modified microtiter dilution; format: cell-based, Staphylococcus aureus; details: MHB, 2–7 × 10^5 CFU/ml, 37°C, 24 h, no turbidity, at least three independent repeats
From the text: as §1

S. aureus 29213 [1] = test: MIC, modified microtiter dilution; format: cell-based, Staphylococcus aureus; details: MHB, 2–7 × 10^5 CFU/ml, 37°C, 24 h, no turbidity, at least three independent repeats
From the text: as §1

MRSA 43300 = format: cell-based, Staphylococcus aureus; details: MHB, 2–7 × 10^5 CFU/ml, 37°C, 24 h, no turbidity, at least three independent repeats
From the text: as §1

L. plantarum 8014 = test: MIC, modified microtiter dilution; format: cell-based, Lactobacillus plantarum; details: 2–7 × 10^5 CFU/ml, 37°C, 24 h, no turbidity, at least three independent repeats
From the text: as §1

L. rhamnosus 1.0385 = test: MIC, modified microtiter dilution; format: cell-based, Lactobacillus rhamnosus; details: 2–7 × 10^5 CFU/ml, 37°C, 24 h, no turbidity, at least three independent repeats
From the text: as §1

L. rhamnosus 1.0911 = test: MIC, modified microtiter dilution; format: cell-based, Lactobacillus rhamnosus; details: 2–7 × 10^5 CFU/ml, 37°C, 24 h, no turbidity, at least three independent repeats
From the text: as §1

L. rhamnosus 1.0936 = test: MIC, modified microtiter dilution; format: cell-based, Lactobacillus rhamnosus; details: 2–7 × 10^5 CFU/ml, 37°C, 24 h, no turbidity, at least three independent repeats
From the text: as §1

L. rhamnosus 7469 = test: MIC, modified microtiter dilution; format: cell-based, Lactobacillus rhamnosus; details: 2–7 × 10^5 CFU/ml, 37°C, 24 h, no turbidity, at least three independent repeats
From the text: as §1

S. aureus 29213 [2] = test: MIC in the presence of physiological salts; format: cell-based, Staphylococcus aureus; details: three independent repeats, unit not given in Table 4; for MIC against S. aureus 29213, FeCl3: 4 μM FeCl3; for MIC against S. aureus 29213, NH4Cl: 6 μM NH4Cl; for MIC against S. aureus 29213, ZnCl2: 8 μM ZnCl2; for MIC against S. aureus 29213, MgCl2: 1 mM MgCl2; for MIC against S. aureus 29213, CaCl2: 2 mM CaCl2; for MIC against S. aureus 29213, KCl: 4.5 mM KCl; for MIC against S. aureus 29213, NaCl: 150 mM NaCl
Protocol: as §1
The MIC of peptides was determined in the presence of salts at physiological concentrations (150 mM NaCl, 4.5 mM KCl, 6 μM NH4Cl, 8 μM ZnCl2, 1 mM MgCl2, 2 mM CaCl2, and 4 μM FeCl3) as described previously ([Dong et al., 2014]). All experiments were performed three times independently.

[3] = system: panel of bacterial species; test: MIC against a panel of bacterial species (summary statements); format: cell-based; details: for antimicrobial activity against the tested microorganisms: all tested bacteria, up to the highest concentration measured
From the text: as §1

RAW 264.7 cells = test: Cytotoxicity, MTT dye reduction assay; format: cell-based, murine; details: highest concentration of 128 μM, 4 h, three independent repeats
Protocol: The cytotoxicity of peptides was determined by healthy human erythrocytes and the murine macrophage cell line RAW 264.7 via a hemolysis assay and MTT dye reduction assay, respectively ([Wang et al., 2018]). In the hemolysis assay, fresh hRBCs from healthy people were centrifuged for 5 min at 1,000 × g and then washed three times with PBS (pH = 7.2). The 100 μL erythrocyte suspension and peptides were incubated for 1.5 h in an incubator at 37°C. The 96-well plates were centrifuged at 1,000 × g for 5 min, and the supernatants were carefully aspirated. The absorbance at 570 nm indicated the leakage of hemoglobin. The hRBCs in the PBS sample was used as the negative control, and 0.1% Triton X-100 addition served as the positive control. In the MTT dye reduction assay, 1.0–2.0 × 10^5 cells were plated in 96-well plates and then treated with various concentrations of peptides for 4 h at 37°C in a 5% CO2 incubator. Subsequently, 50 μL of MTT was added to the plated cells at a final concentration of 0.5 mg/mL and incubated for 4 h. Then, the cells were centrifuged at 1000 × g for 5 min, and the supernatants were discarded. Formazan crystals were dissolved in 150 μL of DMSO, and the OD570 nm was measured using a microplate reader (TECAN GENios F129004; TECAN, Austria). The experiment was repeated three times independently.

[4] = system: Staphylococcus aureus 29213; test: Bacterial resistance development, serial passaging; format: cell-based; details: serial passage at sub-MIC for 15 days
From the text: Staphylococcus aureus 29213 was employed to assess the development of resistance by the serial passaging method, as previously described ([Lyu et al., 2017]). Minimum inhibitory concentration testing was first conducted for all of the compounds to be tested, as described above. S. aureus was harvested from 96-well plates of sub-MIC levels, diluted in MHB to a concentration of 2–7 × 10^5 CFU/mL, and then subjected to MIC determination for up to 15 days. The change in MIC values determines the development of antibiotic resistance in S. aureus.

| Compound | MIC E. coli 25922 (E. coli 25922) [µM] | MIC E. coli UB1005 (E. coli UB1005) [µM] | MIC E. coli K88 (E. coli K88) [µM] | MIC E. coli K99 (E. coli K99) [µM] | MIC S. typhimurium 14028 (S. typhimurium 14028) [µM] | MIC S. typhimurium 7731 (S. typhimurium 7731) [µM] | MIC S. pullorum 7913 (S. pullorum 7913) [µM] | MIC P. aeruginosa 27853 (P. aeruginosa 27853) [µM] | MIC S. aureus 25923 (S. aureus 25923) [µM] | MIC S. aureus 29213 (S. aureus 29213 [1]) [µM] | MIC MRSA 43300 (MRSA 43300) [µM] | MIC L. plantarum 8014 (L. plantarum 8014) [µM] | MIC L. rhamnosus 1.0385 (L. rhamnosus 1.0385) [µM] | MIC L. rhamnosus 1.0911 (L. rhamnosus 1.0911) [µM] | MIC L. rhamnosus 1.0936 (L. rhamnosus 1.0936) [µM] | MIC L. rhamnosus 7469 (L. rhamnosus 7469) [µM] | MIC against S. aureus 29213, FeCl3 (S. aureus 29213 [2]) [µM] | MIC against S. aureus 29213, NH4Cl (S. aureus 29213 [2]) [µM] | MIC against S. aureus 29213, ZnCl2 (S. aureus 29213 [2]) [µM] | MIC against S. aureus 29213, MgCl2 (S. aureus 29213 [2]) [µM] | further results |
| --- | --- | --- | --- | --- | --- | --- | --- | --- | --- | --- | --- | --- | --- | --- | --- | --- | --- | --- | --- | --- | --- |
| CC(C)C[C@H](NC(=O)[C@H](CC(C)C)NC(=O)[C@H](Cc1c[nH]c2ccccc12)NC(=O)[C@H](Cc1c[nH]c2ccccc12)NC(=O)[C@H](Cc1c[nH]c2ccccc12)NC(=O)[C@H](CCCNC(=N)N)NC(=O)[C@H](CS)NC(=O)[C@H](Cc1ccccc1)NC(=O)[C@H](Cc1ccc(O)cc1)NC(=O)[C@H](CO)NC(=O)[C@H](C)NC(=O)[C@@H](N)CS)C(N)=O [Peptide S4] (H-CASYFCRWWWLL-NH2; N-terminus assumed) | >64 | >64 | >64 | >64 | >64 | >64 | >64 | >64 | >64 | >64 | >64 | >64 | >64 | >64 | >64 | >64 | >64 | >64 | >64 | >64 | MIC against S. aureus 29213, CaCl2 (S. aureus 29213 [2]): >64 µM; MIC against S. aureus 29213, KCl (S. aureus 29213 [2]): >64 µM; MIC against S. aureus 29213, NaCl (S. aureus 29213 [2]): >64 µM; antimicrobial activity against the tested microorganisms [3]: failed to show antimicrobial activity; RAW 264.7 cell survival rate (RAW 264.7 cells): 90% |
| C[C@@H]1NC(=O)[C@@H](N)CSSC[C@@H](C(=O)N[C@@H](CCCNC(=N)N)C(=O)N[C@@H](Cc2c[nH]c3ccccc23)C(=O)N[C@@H](Cc2c[nH]c3ccccc23)C(=O)N[C@@H](Cc2c[nH]c3ccccc23)C(=O)N[C@@H](CCCNC(=N)N)C(=O)N[C@@H](CCCNC(=N)N)C(N)=O)NC(=O)[C@H](Cc2ccccc2)NC(=O)[C@H](Cc2ccc(O)cc2)NC(=O)[C@H](CO)NC1=O [Peptide S1] (H-CASYFCRWWWRR-NH2; disulfide 1-6; N-terminus assumed) | 8 (≈ 13.7 µg/mL) | 8 (≈ 13.7 µg/mL) | 32 (≈ 54.9 µg/mL) | 4 (≈ 6.87 µg/mL) | 64 (≈ 110 µg/mL) | 32 (≈ 54.9 µg/mL) | 8 (≈ 13.7 µg/mL) | >64 | 4 (≈ 6.87 µg/mL) | 4 (≈ 6.87 µg/mL) | 4 (≈ 6.87 µg/mL) | >64 | >64 | >64 | >64 | >64 | 8 | 4 | 1 | 4 | MIC against S. aureus 29213, CaCl2 (S. aureus 29213 [2]): 8 µM; MIC against S. aureus 29213, KCl (S. aureus 29213 [2]): 4 µM; MIC against S. aureus 29213, NaCl (S. aureus 29213 [2]): 4 µM; concentrations suppressing growth of tested Gram-negative bacteria ([3]; all tested Gram-negative bacteria except P. aeruginosa 27853): 4 to 64 µM; RAW 264.7 cell survival rate (RAW 264.7 cells): 86% |
| C[C@H](NC(=O)[C@H](C)NC(=O)[C@H](Cc1c[nH]c2ccccc12)NC(=O)[C@H](Cc1c[nH]c2ccccc12)NC(=O)[C@H](Cc1c[nH]c2ccccc12)NC(=O)[C@H](CCCNC(=N)N)NC(=O)[C@@H]1CSSC[C@H](N)C(=O)N[C@@H](C)C(=O)N[C@@H](CO)C(=O)N[C@@H](Cc2ccc(O)cc2)C(=O)N[C@@H](Cc2ccccc2)C(=O)N1)C(N)=O [Peptide S3] (H-CASYFCRWWWAA-NH2; disulfide 1-6; N-terminus assumed) | >64 | >64 | >64 | >64 | >64 | >64 | >64 | >64 | >64 | >64 | >64 | >64 | >64 | >64 | >64 | >64 | >64 | >64 | >64 | >64 | MIC against S. aureus 29213, CaCl2 (S. aureus 29213 [2]): >64 µM; MIC against S. aureus 29213, KCl (S. aureus 29213 [2]): >64 µM; MIC against S. aureus 29213, NaCl (S. aureus 29213 [2]): >64 µM; antimicrobial activity against the tested microorganisms [3]: failed to show antimicrobial activity; RAW 264.7 cell survival rate (RAW 264.7 cells): 84% |
| penicillin [reference compound] | – | – | – | – | – | – | – | – | – | – | – | – | – | – | – | – | – | – | – | – | change in MIC value, 15th day versus first day [4]: 16 fold |

From article PMC7516806, “Hybrid Antimicrobial Peptide Targeting Staphylococcus aureus and Displaying Anti-infective Activity in a Murine Model” (Frontiers in Microbiology, 2020)
